In ChEMBL document CHEMBL3885881, “DrugMatrix”:

Species: Rattus norvegicus
Test: DrugMatrix - Regimen: Daily Repeat
Type: toxicity, organism-based, Sprague-Dawley
Design: regimen Daily Repeat, gender Male, age 6-8 weeks
Conditions: in vivo, po, 0 mg/kg, route oral GAVAGE, dose level Control, vehicle .5 % CMC; for ABSOLUTE BASOPHIL / ABSOLUTE EOSINOPHIL / ABSOLUTE LYMPHOCYTE / ABSOLUTE MONOCYTE / ABSOLUTE SEGMENTED NEUTROPHIL / BASOPHIL / EOSINOPHIL / ERYTHROCYTE COUNT / HEMATOCRIT / HEMOGLOBIN / LEUKOCYTE COUNT / LYMPHOCYTE / MEAN CORPUSCULAR HEMOGLOBIN / MEAN CORPUSCULAR HEMOGLOBIN CONCENTRATION / MEAN CORPUSCULAR VOLUME / MONOCYTE / NEUTROPHIL / NUCLEATED RED BLOOD CELLS / PLATELET COUNT: tissue Blood; for ALANINE AMINOTRANSFERASE / ALBUMIN / ALKALINE PHOSPHATASE / ASPARTATE AMINOTRANSFERASE / BLOOD UREA NITROGEN / CARBON DIOXIDE / CHLORIDE / CHOLESTEROL / CREATININE / GLUCOSE / LACTATE DEHYDROGENASE / LIPASE / PHOSPHORUS / POTASSIUM / SODIUM / TOTAL BILIRUBIN / TOTAL PROTEIN / URIC ACID: tissue Plasma

COc1ccccc1[N+](=O)[O-] [2-NITROANISOLE]
ABSOLUTE BASOPHIL (72 h, time 3 day): 0 CELLS/uL | ABSOLUTE EOSINOPHIL (72 h, time 3 day): 279.83 CELLS/uL | ABSOLUTE LYMPHOCYTE (72 h, time 3 day): 13152.5 CELLS/uL | ABSOLUTE MONOCYTE (72 h, time 3 day): 1013.83 CELLS/uL | ABSOLUTE SEGMENTED NEUTROPHIL (72 h, time 3 day): 2420.5 CELLS/uL | BASOPHIL (72 h, time 3 day): 0% | EOSINOPHIL (72 h, time 3 day): 1.67% | ERYTHROCYTE COUNT (72 h, time 3 day): 5.26 x10E6/uL | HEMATOCRIT (72 h, time 3 day): 32.22% | HEMOGLOBIN (72 h, time 3 day): 12.02 G/DL | LEUKOCYTE COUNT (72 h, time 3 day): 16.87 x10E3/uL | LYMPHOCYTE (72 h, time 3 day): 77.83% | MEAN CORPUSCULAR HEMOGLOBIN (72 h, time 3 day): 22.93 pg | MEAN CORPUSCULAR HEMOGLOBIN CONCENTRATION (72 h, time 3 day): 37.32 G/DL | MEAN CORPUSCULAR VOLUME (72 h, time 3 day): 61.4 fL | MONOCYTE (72 h, time 3 day): 6% | NEUTROPHIL (72 h, time 3 day): 14.5% | NUCLEATED RED BLOOD CELLS (72 h, time 3 day): 0 /100WBC | PLATELET COUNT (72 h, time 3 day): 1122.17 x10E3/uL | ALANINE AMINOTRANSFERASE (72 h, time 3 day): 55.67 u/L | ALBUMIN (72 h, time 3 day): 4.35 G/DL | ALKALINE PHOSPHATASE (72 h, time 3 day): 362.67 u/L | ASPARTATE AMINOTRANSFERASE (72 h, time 3 day): 96 u/L | BLOOD UREA NITROGEN (72 h, time 3 day): 18 mg/dL | CARBON DIOXIDE (72 h, time 3 day): 27.5 mmol/L | CHLORIDE (72 h, time 3 day): 100.17 MEQ/L | CHOLESTEROL (72 h, time 3 day): 74.5 mg/dL | CREATININE (72 h, time 3 day): 0.17 mg/dL | GLUCOSE (72 h, time 3 day): 141.67 mg/dL | LACTATE DEHYDROGENASE (72 h, time 3 day): 682.5 u/L | LIPASE (72 h, time 3 day): 10 u/L | PHOSPHORUS (72 h, time 3 day): 11.5 mg/dL | POTASSIUM (72 h, time 3 day): 6.41 MEQ/L | SODIUM (72 h, time 3 day): 141.2 MEQ/L | TOTAL BILIRUBIN (72 h, time 3 day): 0.18 mg/dL | TOTAL PROTEIN (72 h, time 3 day): 5.88 G/DL | URIC ACID (72 h, time 3 day): 1.4 mg/dL | ABSOLUTE BASOPHIL (120 h, time 5 day): 0 CELLS/uL | ABSOLUTE EOSINOPHIL (120 h, time 5 day): 18.5 CELLS/uL | ABSOLUTE LYMPHOCYTE (120 h, time 5 day): 8146.83 CELLS/uL | ABSOLUTE MONOCYTE (120 h, time 5 day): 204.83 CELLS/uL | ABSOLUTE SEGMENTED NEUTROPHIL (120 h, time 5 day): 1329.83 CELLS/uL | BASOPHIL (120 h, time 5 day): 0% | EOSINOPHIL (120 h, time 5 day): 0.17% | ERYTHROCYTE COUNT (120 h, time 5 day): 5.37 x10E6/uL | HEMATOCRIT (120 h, time 5 day): 33.17% | HEMOGLOBIN (120 h, time 5 day): 12.07 G/DL | LEUKOCYTE COUNT (120 h, time 5 day): 9.7 x10E3/uL | LYMPHOCYTE (120 h, time 5 day): 85.33% | MEAN CORPUSCULAR HEMOGLOBIN (120 h, time 5 day): 22.52 pg | MEAN CORPUSCULAR HEMOGLOBIN CONCENTRATION (120 h, time 5 day): 36.42 G/DL | MEAN CORPUSCULAR VOLUME (120 h, time 5 day): 61.78 fL | MONOCYTE (120 h, time 5 day): 1.83% | NEUTROPHIL (120 h, time 5 day): 12.67% | NUCLEATED RED BLOOD CELLS (120 h, time 5 day): 0 /100WBC | PLATELET COUNT (120 h, time 5 day): 907.5 x10E3/uL | ALANINE AMINOTRANSFERASE (120 h, time 5 day): 58.5 u/L | ALBUMIN (120 h, time 5 day): 4.4 G/DL | ALKALINE PHOSPHATASE (120 h, time 5 day): 377.67 u/L | ASPARTATE AMINOTRANSFERASE (120 h, time 5 day): 140.33 u/L | BLOOD UREA NITROGEN (120 h, time 5 day): 15.33 mg/dL | CARBON DIOXIDE (120 h, time 5 day): 32.17 mmol/L | CHLORIDE (120 h, time 5 day): 100 MEQ/L | CHOLESTEROL (120 h, time 5 day): 71.83 mg/dL | CREATININE (120 h, time 5 day): 0.18 mg/dL | GLUCOSE (120 h, time 5 day): 185 mg/dL | LACTATE DEHYDROGENASE (120 h, time 5 day): 241.5 u/L | LIPASE (120 h, time 5 day): 9.5 u/L | PHOSPHORUS (120 h, time 5 day): 13.02 mg/dL | POTASSIUM (120 h, time 5 day): 6.45 MEQ/L | SODIUM (120 h, time 5 day): 143.45 MEQ/L | TOTAL BILIRUBIN (120 h, time 5 day): 0.22 mg/dL | TOTAL PROTEIN (120 h, time 5 day): 6.1 G/DL | URIC ACID (120 h, time 5 day): 1 mg/dL | ABSOLUTE BASOPHIL ([…], time 14 day): 0 CELLS/uL | ABSOLUTE EOSINOPHIL ([…], time 14 day): 117.17 CELLS/uL | ABSOLUTE LYMPHOCYTE ([…], time 14 day): 13562 CELLS/uL | ABSOLUTE MONOCYTE ([…], time 14 day): 534.83 CELLS/uL | ABSOLUTE SEGMENTED NEUTROPHIL ([…], time 14 day): 2486 CELLS/uL | BASOPHIL ([…], time 14 day): 0% | EOSINOPHIL ([…], time 14 day): 0.83% | ERYTHROCYTE COUNT ([…], time 14 day): 6.14 x10E6/uL | HEMATOCRIT ([…], time 14 day): 36.87% | HEMOGLOBIN ([…], time 14 day): 13.87 G/DL | LEUKOCYTE COUNT ([…], time 14 day): 16.7 x10E3/uL | LYMPHOCYTE ([…], time 14 day): 81% | MEAN CORPUSCULAR HEMOGLOBIN ([…], time 14 day): 22.63 pg | MEAN CORPUSCULAR HEMOGLOBIN CONCENTRATION ([…], time 14 day): 37.62 G/DL | MEAN CORPUSCULAR VOLUME ([…], time 14 day): 60.15 fL | MONOCYTE ([…], time 14 day): 3.17% | NEUTROPHIL ([…], time 14 day): 15% | NUCLEATED RED BLOOD CELLS ([…], time 14 day): 0 /100WBC | PLATELET COUNT ([…], time 14 day): 974.83 x10E3/uL | ALANINE AMINOTRANSFERASE ([…], time 14 day): 52.33 u/L | ALBUMIN ([…], time 14 day): 4.48 G/DL | ALKALINE PHOSPHATASE ([…], time 14 day): 346.17 u/L | ASPARTATE AMINOTRANSFERASE ([…], time 14 day): 81 u/L | BLOOD UREA NITROGEN ([…], time 14 day): 15.67 mg/dL | CARBON DIOXIDE ([…], time 14 day): 34.33 mmol/L | CHLORIDE ([…], time 14 day): 100.17 MEQ/L | CHOLESTEROL ([…], time 14 day): 70.83 mg/dL | CREATININE ([…], time 14 day): 0.22 mg/dL | GLUCOSE ([…], time 14 day): 141.17 mg/dL | LACTATE DEHYDROGENASE ([…], time 14 day): 121.33 u/L | LIPASE ([…], time 14 day): 8.33 u/L | PHOSPHORUS ([…], time 14 day): 9.97 mg/dL | POTASSIUM ([…], time 14 day): 6.4 MEQ/L | SODIUM ([…], time 14 day): 143.72 MEQ/L | TOTAL BILIRUBIN ([…], time 14 day): 0.22 mg/dL | TOTAL PROTEIN ([…], time 14 day): 6.45 G/DL | URIC ACID ([…], time 14 day): 1.25 mg/dL
